In US4963570A, “1-(acetylaminophenyl)-2-aminopropanone derivatives and pharmaceutical compositions thereof” (Laboratoire L. Lafon, priority 1983, dated 1990):
Entries after “also recorded” stand apart in the source; their conditions may differ. Where a name gives a salt, the structure may show the parent alone.

Key:
mice [1] = test: action on the behavioral despair; type: in vivo, mouse; conditions: i.p., dose not stated
Description: Half an hour after they have received CRL 41 224, groups of 6 mice are placed in a beaker filled with water to a height of 6 cm. The total period of immobility between the 2nd and 6th minutes following immersion is noted.

mice [2] = test: overall behavior and reactivities in mice; type: in vivo, mouse; conditions: mice, i.p.; dose not stated
Procedure: (§1) Groups of three animals are observed before and then 0.25 hour, 0.50 hour, 1 hour, 2 hours, 3 hours and 24 hours after the administration of CRL 41 224.

mice [3] = test: motility reduced by habituation to the enclosure; type: in vivo, mouse; conditions: i.p.
Procedure: After they have stayed in the actimeters for 18 hours, the mice (6 per dose, 12 control animals) receive CRL 41 224. They are immediately returned to their respective enclosures and, half an hour later, their motility is recorded for 30 minutes.

mice [4] = test: action on the spontaneous motility (actimeter); type: in vivo, mouse; conditions: for spontaneous motility / motor activity: mice, i.p., dose not stated
Procedure: 0.5 hour after they have received CRL 41 224, the mice (6 per dose, 12 control animals) are placed in an actimeter, where their motility is recorded for 30 minutes.

man = test: clinical trials; type: in vivo, human; conditions: tablets or gelatine capsules 2 mg, 2 to 3 per day
mice [5] = test: interaction with reserpine; type: in vivo, mouse; conditions: i.p.
Procedure: Four hours after the intraperitoneal injection of 2.5 mg/kg of reserpine, groups of 6 mice receive CRL 41 224.

rats [6] = test: overall behavior and reactivities in rats; type: in vivo, rat; conditions: i.p., dose not stated
Procedure: as §1

rats [7] = test: interaction with apomorphine in rats; type: in vivo, rat; conditions: i.p., dose not stated
Procedure: CRL 41 224 is administered to groups of 6 rats 0.5 hour before the subcutaneous injection of 0.5 mg/kg of apomorphine.

rats [8] = test: interaction with amphetamine; type: in vivo, rat; conditions: rats, i.p.; dose not stated
Procedure: Amphetamine (2 mg/kg) is injected intraperitoneally into groups of 6 rats 30 minutes after the administration of CRL 41 224.

mice [9] = test: interaction with apomorphine in mice; type: in vivo, mouse; conditions: i.p.
Procedure: Groups of 6 mice receive CRL 41 224 0.5 hour before the subcutaneous injection of 1 or 16 mg/kg of apomorphine.

rats [10] = test: action on stereotypies in rats (α-methyltyrosine, haloperidol, reserpine); conditions: i.p.
mice [11] = test: toxicity to grouped mice compared with isolated mice; type: in vivo, mouse
[12] = test system: peripheral α-adrenergic stimulation; test: signs of peripheral adrenergic stimulation; type: in vivo, mouse; rat; conditions: i.p.; dose not stated
Procedure: as §1

mice [13] = test: interaction with barbital; type: in vivo, mouse; conditions: for sleep induced by barbital: dose not stated
Procedure: Half an hour after the administration of CRL 41 224, groups of 10 mice receive an intraperitoneal injection of barbital (220 mg/kg).

CNS = test: overall neuropsychopharmacological (CNS) profile; type: in vivo, mouse; rat; conditions: i.p.
Procedure: The neuropsychopharmacological study of CRL 41 219 was carried out as indicated above for CRL 41 224.
The neuropsychopharmacological study of CRL 41 220 was carried out in accordance with the procedures given above for CRL 41 224.

mice [14] = test: motility reduced by hypoxic aggression; type: in vivo, mouse; conditions: i.p., dose not stated
Procedure: Half an hour after they have received CRL 41 224, the mice (10 per dose, 20 control animals) are subjected to acute hypobaric anoxia [pressure reduction of 600 mm Hg (i.e. about 8×10^4 Pa) in 90 seconds; release of vacuum in 45 seconds] and are then placed in an actimeter, where their motility is recorded for 10 minutes.

mice [15] = test: interaction with oxotremorine; type: in vivo, mouse; conditions: i.p.
Procedure: CRL 41 224 is administered to groups of 6 mice 0.5 hour before the intraperitoneal injection of 0.5 mg/kg of oxotremorine.

mice [16] = test: four plate test, traction and electric shock; type: in vivo, mouse; conditions: i.p.
Procedure: The test is performed on groups of 10 mice 30 minutes after the administration of CRL 41 224.

[17] = test system: spleen cells expressing a direct IgM antibody response; test: test for cells forming lysis areas (PFC IgM, Cunningham); type: in vivo, mouse; conditions: 1 mg/kg
mice [18] = test: asphyxiant anoxia (gallamine triiodoethylate); type: in vivo, mouse; conditions: i.p., high dose
Procedure: Groups of 10 mice receive CRL 41 224 half an hour before the intraperitoneal administration of 32 mg/kg of gallamine triiodoethylate (reference curarizing agent).

male mice = test: acute toxicity, intraperitoneal (lethal doses); type: in vivo, mouse; conditions: i.p.
Procedure: By intraperitoneal administration to male mice, the LD-30 (lethal dose for 30% of the animals tested) is of the order of 128 mg/kg and the LD-50 is of the order of about 200 mg/kg.

immunological properties = test: immunological properties, overall; type: in vivo; conditions: dose not stated
Description: The present 1-(acetylaminophenyl)-2-aminopropanone derivatives are useful in therapy. They all act on the CNS, more precisely as antidepressants. They have a stimulant or excitant component in their neuropsychopharmacological profile.

[19] = test system: spleen cells expressing a direct IgM antibody response; test: test for cells forming lysis areas (PFC IgM, Cunningham); type: in vivo, mouse; conditions: oral; for activity index I / counts ± e.s.m. (lysis areas per spleen): mice
Procedure: Immunological assays were carried out in order to point out the interest of CRL 41 240 as an immunomodulating agent. Specifically, the test used was the so-called test for cells forming lysis areas, described by A. J. […] et al. ("Further improvements in the plaque technique for detecting simple antibody forming cells"), Immunology 14, pages 599-601 (1968).
The test for cells forming lysis areas (or PFC IgM) explores the humoral immunity. Four days after immunization with a T-dependent antigen (in this case red blood corpuscles of sheep), the spleen cells expressing a direct IgM antibody response are counted. The mice used for this purpose are conventional female OF1 mice devoid of specific pathogenic organisms, weighing from 20 to 30 g and divided up into a control group of 14 animals and groups each containing 7 animals per dose and per product to be studied, administered orally on the same day as the antigen. An activity index I is calculated for each dose of product according to the following equation: [formula]
This test is performed at least twice for each dose of test product [C(control amimals), 0.01, 0.1, 10 and 100 mg/kg] and a statistical study is undertaken using the Student t test after variance analysis on the number of lyses per spleen.

[20] = test system: delayed hypersensitivity to the red blood corpuscles of sheep; test: delayed hypersensitivity to the red blood corpuscles of sheep (Miller); type: in vivo; conditions: oral, 10 to 100 mg/kg

| SMILES | period of immobility or "despair" (mice [1]) | excitation in mice (mice [2]) | motor activity after habituation to the enclosure (mice [3]; dose not stated) | spontaneous motility / motor activity (mice [4]) | hypothermia induced by reserpine (mice [5]; dose not stated) | ptosis induced by reserpine (mice [5]; dose not stated) | stereotype movements in rats (rats [6]) | stereotypies induced by apomorphine (rats [7]) | stereotypies induced by amphetamine (rats [8]) | hypothermia induced by apomorphine (mice [9]; dose not stated) | exophthalmos [12] | mydriasis [12] | peripheral adrenergic stimulation, overall [12] | sleep induced by barbital (mice [13]; i.p.) | overall action on the CNS (CNS; mice and rats, dose not stated) | motor recovery after hypoxic aggression (mice [14]) | hypothermia induced by oxotremorine (mice [15]; dose not stated) | LD-0 (maximum non-lethal dose) (male mice) | immunological properties, overall (immunological properties) | other results |
| --- | --- | --- | --- | --- | --- | --- | --- | --- | --- | --- | --- | --- | --- | --- | --- | --- | --- | --- | --- | --- |
| CC(=O)Nc1ccc(C(=O)C(C)NC(C)(C)C)cc1 (stereo not shown) [CRL 41 177] | a reduction in the immobility | excitation with hyperreactivity in mice | a resumption in the motor activity of mice accustomed to their enclosure | an increase in the spontaneous motility in mice | antagonism of the hypothermia induced by apomorphine, oxotremorine or reserpine | antagonism of the ptosis induced by reserpine | stereotype movements in rats | potentiation of the stereotypies induced by apomorphine | potentiation of the stereotypies induced by apomorphine or amphetamine | antagonism of the hypothermia induced by apomorphine | absent | mydriasis | effects which may reflect peripheral adrenergic stimulation | antagonism of the sleep induced by barbital | stimulant effects; also recorded: antidepressant effects | an improvement in the motor recovery in mice after acute hypoxia | antagonism of the hypothermia induced by apomorphine, oxotremorine | – | – | effect on spontaneous motility, gastric versus intraperitoneal (mice [4]; male mice, gastric): greater than on intraperitoneal administration; clinical result: antidepressant (man): excellent antidepressant drug; suppression of induced stereotype movements by prior injection of alpha-methyltyrosine (rats [10]): not suppressed; toxicity to grouped mice compared with isolated mice (mice [11]): do not increase the toxicity to grouped mice; salivation [12]: absent; interaction with barbital, gastric versus intraperitoneal (mice [13]; male mice, gastric): greater than on intraperitoneal administration; trembling caused by oxotremorine (mice [15]; dose not stated): antagonism of the trembling caused by oxotremorine; convulsant effects of electric shock (mice [16]; dose not stated): potentiate the convulsant effects of electric shock |
| CC(=O)Nc1ccc(C(=O)C(C)N2CCCCC2)cc1 (stereo not shown) [CRL 41 240, 1-(4-acetylaminophenyl)-2-piperidinopropanone hydrochloride] | reduction in the period of immobility | excitation in mice | resumption in the activity of mice accustomed to their enclosure | increase in the motor activity | antagonism of the hypothermia induced by apomorphine, reserpine | antagonism of the ptosis induced by reserpine | presence of stereotype movements | potentiation of the stereotypies induced by apomorphine | potentiation of the stereotypies induced by apomorphine and amphetamine | antagonism of the hypothermia induced by apomorphine | exophthalmos | mydriasis | peripheral α-adrenergic stimulation | very distinct antagonism of the sleep induced by barbital | behaves as an antidepressant and stimulant for the CNS | improvement in the motor recovery | antagonism of the hypothermia induced by apomorphine, reserpine and oxotremorine | greater than 256 mg/kg | beneficial immunomodulating effects | stereotype movements in mice (mice [2]): presence of stereotype movements; activity index I ([17]; mice, oral): 1.65; counts ± e.s.m. (lysis areas per spleen) ([17]; mice, oral): 86.5 ± 13.74 m.10^3 /rate; excitation in rats (rats [6]): excitation in mice and rats; time taken for asphyxiant convulsions (and death) to occur (mice [18]): increase in the time taken for asphyxiant convulsions to occur; minimal effective dose ([19]; Mus musculus, female OF1 mice, read-out: lowest immunologically active dose): 0.1 mg/kg; activity index I ([19]; 0.01 mg/kg): 1.23; counts ± e.s.m. (lysis areas per spleen) ([19]; 0.01 mg/kg): 64.5 ± 11.99 m.10^3 /rate; activity index I ([19]; 0.1 mg/kg): 1.25; counts ± e.s.m. (lysis areas per spleen) ([19]; 0.1 mg/kg): 65.7 ± 11.60 m.10^3 /rate; activity index I ([19]; 10 mg/kg): 1.52; counts ± e.s.m. (lysis areas per spleen) ([19]; 10 mg/kg): 79.4 ± 11.54 m.10^3 /rate; activity index I ([19]; 100 mg/kg): 1.31; counts ± e.s.m. (lysis areas per spleen) ([19]; 100 mg/kg): 68.8 ± 7.21 m.10^3 /rate; convulsant effects of electric shock (mice [16]; strong/high dose): antagonism of the convulsant effects of electric shock |
| CC(=O)Nc1cccc(C(=O)C(C)NC(C)C)c1 (stereo not shown) [CRL 41 254] | – | – | – | – | – | – | – | – | – | – | – | – | – | – | – | – | – | greater than 256 mg/kg | beneficial immunomodulating effects | motor activity after habituation to the enclosure (mice [3]; strong doses): a moderate resumption in the motor activity of mice accustomed to their enclosure; immunostimulant activity, PFC IgM test [17]: statistically significant immunostimulant activity; hypothermia induced by reserpine (mice [5]; strong doses): no antagonism of the hypothermia induced by reserpine; hypothermia induced by apomorphine (mice [9]; strong doses): antagonism of the hypothermia induced by apomorphine; LD-100 (male mice): less than or equal to 512 mg/kg; duration of the sleep induced by barbital (mice [13]; i.p., strong/high doses): a reduction in the duration of the sleep induced by barbital; overall action on the CNS (CNS; strong/high doses): modest antidepressant effects; also recorded: weak stimulant effects; hypothermia induced by oxotremorine (mice [15]; strong/high doses): antagonism of the hypothermia induced by apomorphine and oxotremorine; immunostimulant activity, delayed hypersensitivity [20]: statistically significant immunostimulant activity |
